From ChEMBL document CHEMBL1201862, “PubChem BioAssay data set” (2004)
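Cultured in 96-well plates, cells were exposed to test compound for 48 hours across five concentrations. GI50 marks 50% less growth.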 The source made the active and inactive calls. No stated cut-off is given here; in the data, active = GI50 up to about 1.1 µM and inactive = higher.

Legend:
Assay in all cases: DTP human tumour cell line panel, 48 h
786-0 = tested on: 786-0
ACHN = tested on: ACHN
SR = tested on: SR
OVCAR-3 = tested on: OVCAR-3
CCRF-CEM = tested on: CCRF-CEM
SK-MEL-5 = tested on: SK-MEL-5
SN12C = tested on: SN12C
SK-OV-3 = tested on: SK-OV-3
UACC-257 = tested on: UACC-257
KM12 = tested on: KM12
M14 = tested on: M14
SF-295 = tested on: SF-295
NCI-H226 = tested on: NCI-H226
HCT-116 = tested on: HCT-116
CAKI-1 = tested on: CAKI-1
SK-MEL-2 = tested on: SK-MEL-2
MOLT-4 = tested on: MOLT-4

Measured: GI50

COc1cc(C2Oc3cc(-c4oc5cc(O)cc(O)c5c(=O)c4O)ccc3OC2CO)ccc1O (stereo not given) [DEHYDROSILYLBIN]
inactive: 786-0 8.55 µM | ACHN 7.64 µM | SR 4.61 µM | OVCAR-3 21.5 µM | CCRF-CEM 5.77 µM | SK-MEL-5 15.4 µM | SN12C 10.8 µM | SK-OV-3 21.4 µM | UACC-257 32 µM | KM12 20.1 µM | M14 12.4 µM | SF-295 10.7 µM | NCI-H226 8.51 µM | HCT-116 4.71 µM | CAKI-1 14 µM | SK-MEL-2 7.38 µM | MOLT-4 3.9 µM

COc1cc2cc3c4c(cc(OC)c(OC)c4c2cc1OC)CCN3C(=O)N(C)C
inactive: 786-0 44.5 µM | ACHN 75.5 µM | SR > 100 µM | OVCAR-3 > 100 µM | CCRF-CEM 96.6 µM | SK-MEL-5 > 100 µM | SN12C > 100 µM | SK-OV-3 > 100 µM | UACC-257 > 100 µM | KM12 > 100 µM | M14 > 10 µM | SF-295 37.8 µM | NCI-H226 56.2 µM | HCT-116 > 100 µM | CAKI-1 34.8 µM | SK-MEL-2 > 100 µM | MOLT-4 > 100 µM

COC(=O)C(=O)C(C#N)c1ccc(Cl)c(Cl)c1 (stereo not given)
inactive: 786-0 > 100 µM | ACHN > 100 µM | SR > 100 µM | OVCAR-3 > 100 µM | CCRF-CEM > 100 µM | SK-MEL-5 > 100 µM | SN12C > 100 µM | SK-OV-3 > 100 µM | UACC-257 > 100 µM | KM12 > 100 µM | M14 > 100 µM | SF-295 > 100 µM | NCI-H226 > 100 µM | HCT-116 > 100 µM | CAKI-1 > 100 µM | SK-MEL-2 > 100 µM | MOLT-4 > 100 µM

CCOC(=O)c1c2cccccc2n2c(=O)cc(C)nc12
inactive: 786-0 > 100 µM | ACHN > 100 µM | SR > 100 µM | OVCAR-3 > 100 µM | CCRF-CEM > 100 µM | SN12C > 100 µM | UACC-257 > 100 µM | KM12 > 100 µM | M14 > 100 µM | SF-295 > 100 µM | NCI-H226 > 100 µM | CAKI-1 > 100 µM | SK-MEL-2 > 100 µM | MOLT-4 > 100 µM

O=C1CNS(=O)(=O)N1
inactive: 786-0 > 100 µM | SR > 100 µM | OVCAR-3 > 100 µM | CCRF-CEM > 100 µM | SN12C > 100 µM | SK-OV-3 > 100 µM | UACC-257 > 100 µM | KM12 > 100 µM | M14 > 100 µM | SF-295 > 100 µM | NCI-H226 14.5 µM | HCT-116 > 100 µM | CAKI-1 > 100 µM | SK-MEL-2 > 100 µM | MOLT-4 > 100 µM

CC(C)(C)c1cc(CCC(=O)Nc2ccc(Cl)cc2Cl)nc(N)n1
inactive: 786-0 > 100 µM | ACHN > 100 µM | SR > 100 µM | OVCAR-3 > 100 µM | CCRF-CEM > 100 µM | SK-MEL-5 > 100 µM | SN12C > 100 µM | SK-OV-3 > 100 µM | UACC-257 > 100 µM | KM12 > 100 µM | M14 > 100 µM | SF-295 > 100 µM | NCI-H226 > 100 µM | HCT-116 > 100 µM | CAKI-1 > 100 µM | SK-MEL-2 > 100 µM | MOLT-4 > 100 µM

O=C(/C=C/c1ccccc1F)c1ccc(Cl)c(Cl)c1
inactive: 786-0 17.3 µM | ACHN > 88.1 µM | SR 33.3 µM | OVCAR-3 > 44.8 µM | CCRF-CEM 23.3 µM | SK-MEL-5 33.5 µM | SN12C 35.6 µM | SK-OV-3 > 100 µM | UACC-257 49.4 µM | KM12 19.9 µM | M14 32.4 µM | SF-295 39.3 µM | NCI-H226 > 100 µM | HCT-116 16.3 µM | CAKI-1 38.8 µM | SK-MEL-2 > 75 µM | MOLT-4 27.4 µM

C[C@]12CCCC(=O)C1(O)C[C@H](C(=O)O)CC2 (stereo not given in full)
inactive: 786-0 > 100 µM | ACHN > 100 µM | SR > 100 µM | OVCAR-3 > 100 µM | CCRF-CEM > 100 µM | SK-MEL-5 > 100 µM | SN12C > 100 µM | SK-OV-3 > 100 µM | UACC-257 > 100 µM | KM12 > 100 µM | M14 > 100 µM | SF-295 > 100 µM | NCI-H226 > 100 µM | HCT-116 > 100 µM | CAKI-1 > 100 µM | SK-MEL-2 > 100 µM | MOLT-4 > 100 µM

COc1cc(C2c3cc4c(cc3[C@@H](N(C)C)[C@H]3COC(=O)C23)OCO4)cc(OC)c1O (stereo not given in full)
inactive: 786-0 33.2 µM | ACHN 41.5 µM | SR 54.5 µM | CCRF-CEM 49.1 µM | SK-MEL-5 23.7 µM | SN12C 51.4 µM | SK-OV-3 37 µM | UACC-257 67.9 µM | KM12 38.2 µM | M14 31 µM | SF-295 > 10 µM | NCI-H226 > 100 µM | HCT-116 38 µM | CAKI-1 23.7 µM | SK-MEL-2 33.4 µM | MOLT-4 38.2 µM

CC1Nc2ccccc2NC1C=C(C#N)C#N (stereo not given)
inactive: 786-0 16 µM | ACHN 18.3 µM | SR 5.61 µM | OVCAR-3 15.8 µM | CCRF-CEM 2.72 µM | SK-MEL-5 17.1 µM | SN12C 15.6 µM | SK-OV-3 21.8 µM | UACC-257 > 10 µM | KM12 16.5 µM | M14 11.9 µM | SF-295 15.5 µM | NCI-H226 17.3 µM | HCT-116 13.5 µM | CAKI-1 14.1 µM | SK-MEL-2 21.3 µM | MOLT-4 5.96 µM

c1ccc2c(c1)CCc1c(-c3ccncc3)n[nH]c1-2
inactive: 786-0 37.8 µM | ACHN 26.5 µM | SR 27.8 µM | OVCAR-3 16.7 µM | CCRF-CEM 14.2 µM | SK-MEL-5 18 µM | SN12C 43.5 µM | SK-OV-3 33.4 µM | UACC-257 25.6 µM | KM12 21.8 µM | M14 22.8 µM | SF-295 45.7 µM | NCI-H226 23 µM | HCT-116 22.2 µM | CAKI-1 19.8 µM | SK-MEL-2 17.9 µM | MOLT-4 36 µM

OCCC1(O)CCC(O)CC1 (stereo not given)
inactive: 786-0 > 100 µM | SR > 100 µM | OVCAR-3 > 100 µM | CCRF-CEM > 100 µM | SK-MEL-5 > 100 µM | SK-OV-3 > 100 µM | UACC-257 > 100 µM | KM12 > 100 µM | M14 > 100 µM | SF-295 > 100 µM | NCI-H226 > 100 µM | HCT-116 > 100 µM | SK-MEL-2 > 100 µM | MOLT-4 > 100 µM
